Assay results from ChEMBL document CHEMBL3627717, “Multivalent LKγ-PNA oligomers bind to a human telomere DNA G-rich sequence to form quadruplexes” (Bioorg Med Chem Lett, 2015).

These compounds were tested on DNA (assay: Binding affinity to human truncated telomeric DNA1 assessed as melting temperature at 20 uM by UV melting curve analysis (reference value: 58.9 +/- 0.3 degC)).
Type: nucleic-acid assay

**Q.** For `CC(=O)NCCN(CC(=O)NC(CCCCN)CN(CC(=O)NCCN(CC(=O)NC(CCCCN)CN(CC(=O)NCCN(CC(=O)NC(CCCCN(C)C)C(N)=O)C(=O)Cn1cc(C)c(=O)[nH]c1=O)C(=O)Cn1cnc2c(=O)[nH]c(N)nc21)C(=O)Cn1cnc2c(=O)[nH]c(N)nc21)C(=O)Cn1cnc2c(=O)[nH]c(N)nc21)C(=O)Cn1cc(C)c(=O)[nH]c1=O` (centres undefined), which Tm is on record?
**A.** Its Tm is 58.4 °C.

**Q.** `CC(=O)NCCN(CC(=O)NC(CCCCN)CN(CC(=O)NC(CCCCN)CN(CC(=O)NC(CCCCN)CN(CC(=O)NCCN(CC(=O)NC(CCCCN(C)C)C(N)=O)C(=O)Cn1cc(C)c(=O)[nH]c1=O)C(=O)Cn1cnc2c(=O)[nH]c(N)nc21)C(=O)Cn1cnc2c(=O)[nH]c(N)nc21)C(=O)Cn1cnc2c(=O)[nH]c(N)nc21)C(=O)Cn1cc(C)c(=O)[nH]c1=O` (centres undefined) was tested. Which Tm did it give?
**A.** The Tm was 59.1 °C.

**Q.** Which Tm does the source give for `CC(=O)NCCN(CC(=O)NCCN(CC(=O)NCCN(CC(=O)NCCN(CC(=O)NCCN(CC(=O)NC(CCCCN(C)C)C(N)=O)C(=O)Cn1cc(C)c(=O)[nH]c1=O)C(=O)Cn1cnc2c(=O)[nH]c(N)nc21)C(=O)Cn1cnc2c(=O)[nH]c(N)nc21)C(=O)Cn1cnc2c(=O)[nH]c(N)nc21)C(=O)Cn1cc(C)c(=O)[nH]c1=O` (centres undefined) here?
**A.** The Tm was 57.3 °C.

**Q.** Which Tm does the source give for `CC(=O)NCCN(CC(=O)NCCN(CC(=O)NC(CCCCN)CN(CC(=O)NCCN(CC(=O)NCCN(CC(=O)NC(CCCCN(C)C)C(N)=O)C(=O)Cn1cc(C)c(=O)[nH]c1=O)C(=O)Cn1cnc2c(=O)[nH]c(N)nc21)C(=O)Cn1cnc2c(=O)[nH]c(N)nc21)C(=O)Cn1cnc2c(=O)[nH]c(N)nc21)C(=O)Cn1cc(C)c(=O)[nH]c1=O` (centres undefined) here?
**A.** Its Tm is 60.2 °C.
